US9562057B2, “(Thieno[2,3-b][1,5]benzoxazepin-4-yl)piperazin-1-yl compounds as dual activity H1 inverse agonists/5-HT2A antagonists” (Eli Lilly and Company, priority 2013, dated 2017)
Structures can show the parent of a compound that is named as a salt.

Assays:
Adrenergic alpha1A = Adrenergic alpha1A (Homo sapiens, UniProt P35348); assay: Adrenergic alpha1A binding
Source text: (§1) Further, the compounds of the invention may be tested in binding assays and functional activity assays by well known methods for other physiologically important receptors such as, but not limited to, the hERG channel, other serotonin receptors (specifically 5-HT1B and 5-HT1D receptors, lack of agonist activity at 5-HT2B receptors, 5-HT2C, 5-HT5, 5-HT6, and 5-HT7 receptors), dopaminergic receptors (specifically D1, D2, and D3), GABAA receptors, adrenergic receptors and monoamine transporters.

male Wistar rats = assay: Sleep and behavioral monitoring in rats (EEG, EMG, motion); assay type: in vivo; conditions: for Rebound Insomnia Adj. Mean: NREM+REM sleep in 7th-9th hours post-treatment; for Rebound Insomnia Adj. Mean / Cumulative Total sleep Adj. Mean / REM inhibition Adj. Mean / Cumulative NREM sleep Adj. Mean / Locomotor Activity Intensity Adj. Mean: adjusted difference from vehicle; for Cumulative Total sleep Adj. Mean: NREM+REM; for Cumulative Total sleep Adj. Mean / Average Sleep Bout Adj. Mean / Longest Sleep Bout Adj. Mean / Cumulative NREM sleep Adj. Mean / Locomotor Activity Intensity Adj. Mean: first 6 hr. post-treatment; for REM inhibition Adj. Mean: cumulative REM sleep, first 12 hr. post-treatment
Method: The compound of the present invention is tested in rats for its ability to increase the amount of sleep or decrease sleep interruption or both without undesired effects such as inhibition of REM sleep, waking motor impairment, and/or rebound insomnia. Test animals are continuously monitored by electro-encephalograms (EEG), electromyograms (EMG), and motion to measure cumulative nonREM sleep, cumulative total sleep, average sleep bout duration, longest sleep bout duration, rebound insomnia, REM sleep inhibition and locomotor activity intensity during wakefulness. Methods for such studies are known in the art (see for example methods described in Edgar D M, Seidel W F. Modafinil induces wakefulness without intensifying motor activity or subsequent rebound hypersomnolence in the rat. J Pharmacology & Experimental Therapeutics 1997; 283: 757-769; van Gelder R N, Edgar D M, Dement W C. Real-time automated sleep scoring: validation of a microcomputer-based system for mice. Sleep 1991, 14: 48-55; and Gross B A, Walsh C M, Turakhia A A, Booth V, Mashour G A, Poe G R. Open-source logic-based automated sleep scoring software using electrophysiological recordings in rats. J Neurosci Methods. 2009; 184(1):10-8.) Studies are conducted as follows:
Adult, male Wistar rats (approximately 270-300 g at time of surgery) are surgically fitted for chronic recording of EEG, EMG, and motion as follows: Rats are surgically prepared with a cranial implant consisting of four stainless steel screws for EEG recording (two frontal [3.9 mm anterior from bregma, and ±2.0 mm mediolaterally] and two occipital [6.4 mm posterior from bregma, ±5.5 mm mediolaterally]), and with two Teflon-coated stainless steel wires for EMG recording (positioned under the nuchal trapezoid muscles). All leads are soldered to a miniature connector (Microtech, Boothwyn, Pa.) prior to surgery. The implant assembly is affixed to the skull by the combination of the stainless steel EEG recording screws, cyanoacrylate applied between the implant connector and skull, and dental acrylic. Locomotor activity is monitored via a miniature transmitter (Minimitter PDT4000G, Philips Respironics, Bend, Oreg.) surgically placed into the abdomen. At least 3 weeks are allowed for recovery.
Each rat is housed individually within a microisolator cage modified with an inserted polycarbonate filter-top riser to allow more vertical headroom. A flexible cable that minimally restricts movement is connected at one end to a commutator afixed to the cage top and at the other end to the animal's cranial implant. Each cage is located within separate, ventilated compartments of a stainless steel sleep-wake recording chamber. Food and water are available ad libitum and the ambient temperature is maintained at about 23±1° C. A 24-hr light-dark cycle (LD 12:12) using fluorescent light is maintained throughout the study. Relative humidity averages approximately 50%. Animals are undisturbed for at least 30 his before and after each treatment.
The vehicle (placebo, methylcellulose 15 centipoise 0.25% in water) or one of the test compound dose levels is administered orally at 1 mL/kg pseudo-randomly such that no rat receives the same treatment twice, and no rat receives more than two of the 8 treatments in any one study. Each rat is removed from its cage for about a minute to be weighed and treated. At least 6 days “washout” period precede and follow each treatment. […]

Adrenergic alpha2C = Adrenergic alpha2C (Homo sapiens, UniProt P18825); assay: Adrenergic alpha2C binding
Source text: as §1

[1] = threshold efficacy dose, 6 hr. after treatment, 4 parameter logistic regression, freebase
[2] = within 10 times the most conservative efficacy dose (0.78 mg/kg)

Adrenergic alpha1A, sequence (P35348 whole entry): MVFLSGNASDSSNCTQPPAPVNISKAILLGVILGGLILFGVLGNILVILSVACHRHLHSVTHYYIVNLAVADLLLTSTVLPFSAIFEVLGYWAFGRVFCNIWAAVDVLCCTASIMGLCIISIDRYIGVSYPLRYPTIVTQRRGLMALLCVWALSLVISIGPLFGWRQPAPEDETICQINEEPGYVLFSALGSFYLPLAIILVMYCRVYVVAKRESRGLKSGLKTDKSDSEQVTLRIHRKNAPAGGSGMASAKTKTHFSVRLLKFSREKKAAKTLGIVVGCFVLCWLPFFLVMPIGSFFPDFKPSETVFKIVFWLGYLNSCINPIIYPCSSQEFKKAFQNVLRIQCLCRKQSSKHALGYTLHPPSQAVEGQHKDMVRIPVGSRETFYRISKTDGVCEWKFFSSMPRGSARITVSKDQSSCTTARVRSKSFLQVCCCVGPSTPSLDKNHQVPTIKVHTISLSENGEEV
Adrenergic alpha2C, sequence (P18825 whole entry): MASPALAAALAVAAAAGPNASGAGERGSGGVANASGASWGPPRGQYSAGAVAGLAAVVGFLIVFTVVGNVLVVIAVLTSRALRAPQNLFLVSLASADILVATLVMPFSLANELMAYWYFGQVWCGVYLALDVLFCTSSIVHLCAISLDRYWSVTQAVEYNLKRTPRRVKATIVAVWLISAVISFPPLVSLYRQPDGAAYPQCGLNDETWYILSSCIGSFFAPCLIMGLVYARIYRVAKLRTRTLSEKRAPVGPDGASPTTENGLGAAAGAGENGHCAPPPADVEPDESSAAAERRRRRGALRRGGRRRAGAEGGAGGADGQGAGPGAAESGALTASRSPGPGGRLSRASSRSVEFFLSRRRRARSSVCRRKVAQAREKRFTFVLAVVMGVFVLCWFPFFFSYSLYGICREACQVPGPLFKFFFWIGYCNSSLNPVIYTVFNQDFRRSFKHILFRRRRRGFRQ

Compound: Cc1ccc2c(c1)Oc1sc(C3CC3)cc1C(N1CCN(CC(C)(C)C(=O)O)CC1)=N2 [Example 2, 3-[4-(2-Cyclopropyl-8-methyl-thieno[2,3-b][1,5]benzoxazepin-4-yl)piperazin-1-yl]-2,2-dimethyl-propanoic acid dihydrochloride]
- Ki (Adrenergic alpha1A): 4.62 µM
- Rebound Insomnia Adj. Mean (male Wistar rats; 0.025 mg/kg PO): 0.40 min
- Cumulative Total sleep Adj. Mean (male Wistar rats; 0.025 mg/kg PO): 3.6 min
- REM inhibition Adj. Mean (male Wistar rats; 0.025 mg/kg PO): 5.0 min
- Average Sleep Bout Adj. Mean (male Wistar rats; 0.025 mg/kg PO): 1.08 n-fold increase over vehicle controls
- Longest Sleep Bout Adj. Mean (male Wistar rats; 0.025 mg/kg PO): 1.26 n-fold increase over vehicle controls
- Cumulative NREM sleep Adj. Mean (male Wistar rats; 0.025 mg/kg PO): -2.3 min
- Locomotor Activity Intensity Adj. Mean (male Wistar rats; 0.025 mg/kg PO): −1.40 LMA counts per minute of EEG-defined wakefulness
- Rebound Insomnia Adj. Mean (male Wistar rats; 0.1 mg/kg PO): -0.027 min
- Cumulative Total sleep Adj. Mean (male Wistar rats; 0.1 mg/kg PO): 16.9 min
- REM inhibition Adj. Mean (male Wistar rats; 0.1 mg/kg PO): -0.71 min
- Average Sleep Bout Adj. Mean (male Wistar rats; 0.1 mg/kg PO): 1.19 n-fold increase over vehicle controls
- Longest Sleep Bout Adj. Mean (male Wistar rats; 0.1 mg/kg PO): 1.07 n-fold increase over vehicle controls
- Cumulative NREM sleep Adj. Mean (male Wistar rats; 0.1 mg/kg PO): 15.4 min
- Locomotor Activity Intensity Adj. Mean (male Wistar rats; 0.1 mg/kg PO): 0.41 LMA counts per minute of EEG-defined wakefulness
- Rebound Insomnia Adj. Mean (male Wistar rats; 0.25 mg/kg PO): 2.2 min
- Cumulative Total sleep Adj. Mean (male Wistar rats; 0.25 mg/kg PO): 23.0 min
- REM inhibition Adj. Mean (male Wistar rats; 0.25 mg/kg PO): 2.8 min
- Average Sleep Bout Adj. Mean (male Wistar rats; 0.25 mg/kg PO): 1.34 n-fold increase over vehicle controls
- Longest Sleep Bout Adj. Mean (male Wistar rats; 0.25 mg/kg PO): 1.55 n-fold increase over vehicle controls
- Cumulative NREM sleep Adj. Mean (male Wistar rats; 0.25 mg/kg PO): 19.1 min
- Locomotor Activity Intensity Adj. Mean (male Wistar rats; 0.25 mg/kg PO): −0.31 LMA counts per minute of EEG-defined wakefulness
- Rebound Insomnia Adj. Mean (male Wistar rats; 0.5 mg/kg PO): -5.0 min
- Cumulative Total sleep Adj. Mean (male Wistar rats; 0.5 mg/kg PO): 32.6 min
- REM inhibition Adj. Mean (male Wistar rats; 0.5 mg/kg PO): 2.3 min
- Average Sleep Bout Adj. Mean (male Wistar rats; 0.5 mg/kg PO): 1.59 n-fold increase over vehicle controls
- Longest Sleep Bout Adj. Mean (male Wistar rats; 0.5 mg/kg PO): 1.81 n-fold increase over vehicle controls
- Cumulative NREM sleep Adj. Mean (male Wistar rats; 0.5 mg/kg PO): 30.6 min
- Locomotor Activity Intensity Adj. Mean (male Wistar rats; 0.5 mg/kg PO): −1.30 LMA counts per minute of EEG-defined wakefulness
- Rebound Insomnia Adj. Mean (male Wistar rats; 1 mg/kg PO): -0.6 min
- Cumulative Total sleep Adj. Mean (male Wistar rats; 1 mg/kg PO): 33.2 min
- REM inhibition Adj. Mean (male Wistar rats; 1 mg/kg PO): 1.2 min
- Average Sleep Bout Adj. Mean (male Wistar rats; 1 mg/kg PO): 1.60 n-fold increase over vehicle controls
- Longest Sleep Bout Adj. Mean (male Wistar rats; 1 mg/kg PO): 2.16 n-fold increase over vehicle controls
- Cumulative NREM sleep Adj. Mean (male Wistar rats; 1 mg/kg PO): 31.0 min
- Locomotor Activity Intensity Adj. Mean (male Wistar rats; 1 mg/kg PO): −2.33 LMA counts per minute of EEG-defined wakefulness
- Rebound Insomnia Adj. Mean (male Wistar rats; 3 mg/kg PO): 1.6 min
- Cumulative Total sleep Adj. Mean (male Wistar rats; 3 mg/kg PO): 31.6 min
- REM inhibition Adj. Mean (male Wistar rats; 3 mg/kg PO): 0.042 min
- Average Sleep Bout Adj. Mean (male Wistar rats; 3 mg/kg PO): 1.92 n-fold increase over vehicle controls
- Longest Sleep Bout Adj. Mean (male Wistar rats; 3 mg/kg PO): 2.16 n-fold increase over vehicle controls
- Cumulative NREM sleep Adj. Mean (male Wistar rats; 3 mg/kg PO): 30.1 min
- Locomotor Activity Intensity Adj. Mean (male Wistar rats; 3 mg/kg PO): 0.01 LMA counts per minute of EEG-defined wakefulness
- Rebound Insomnia Adj. Mean (male Wistar rats; 10 mg/kg PO): 3.3 min
- Cumulative Total sleep Adj. Mean (male Wistar rats; 10 mg/kg PO): 26.3 min
- REM inhibition Adj. Mean (male Wistar rats; 10 mg/kg PO): -7.3 min
- Average Sleep Bout Adj. Mean (male Wistar rats; 10 mg/kg PO): 1.56 n-fold increase over vehicle controls
- Longest Sleep Bout Adj. Mean (male Wistar rats; 10 mg/kg PO): 2.12 n-fold increase over vehicle controls
- Cumulative NREM sleep Adj. Mean (male Wistar rats; 10 mg/kg PO): 26.9 min
- Locomotor Activity Intensity Adj. Mean (male Wistar rats; 10 mg/kg PO): −0.89 LMA counts per minute of EEG-defined wakefulness
- REM sleep inhibition (in words) (male Wistar rats; at 3 mg/kg): without significant
- cumulative NREM sleep time (in words) (male Wistar rats; at 3 mg/kg): significantly increase
- cumulative total sleep time (in words) (male Wistar rats; at 3 mg/kg): significantly increase
- inhibition of locomotor intensity (LMI) (in words) (male Wistar rats; at 3 mg/kg): without significant
- rebound insomnia (in words) (male Wistar rats; at 3 mg/kg): without significant
- REM sleep inhibition versus threshold value (male Wistar rats; at 10 mg/kg, threshold −10 min. cumulative REM sleep (lower confidence limit)): exceeds the threshold value
- change in awake time following treatment (dose response curve, FIG. 2) (male Wistar rats; dose response): does not result in rebound insomnia
- change in cumulative REM sleep time (dose response curve, FIG. 1) (male Wistar rats; dose response): does not inhibit REM sleep
- change in distances moved during periods of wakefulness (dose response curve, FIG. 3) (male Wistar rats; dose response): does not inhibit or stimulate normal activity
- Estimated efficacy dose (mg/kg), NREM accumulation = 30 min. (male Wistar rats; [1]): 0.78 mg/kg
- Estimated efficacy dose (mg/kg), average sleep bout (1.5-fold increase) (male Wistar rats; [1]): 0.33 mg/kg
- Estimated efficacy dose (mg/kg), longest sleep bout (1.75-fold increase) (male Wistar rats; [1]): 0.33 mg/kg
- Estimated efficacy dose (mg/kg), total sleep accumulation = 25 min. (male Wistar rats; [1]): 0.19 mg/kg
- undesired occurrences of REM inhibition (male Wistar rats; [2]): no undesired occurrences
- undesired occurrences of rebound insomnia (male Wistar rats; [2]): no undesired occurrences
- undesired occurrences of reduction in LMI (male Wistar rats; [2]): no undesired occurrences
- Ki (Adrenergic alpha2C): 1.38 µM
